In PubChem BioAssay AID179 (DTP/NCI, 2004) one finds EC50, IC50 and outcome data, which are given here for 71 compounds.

Where “and” joins values, the source holds several entries; their conditions need not be identical. Equal entries are not always repeated. Calls of active or inactive are those of the source.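 Rule for the calls: active = compounds giving half or more protection of infected cells from virus-caused growth loss, again on retest; inactive = the rest.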 Where a SMILES comes first, the peptide text is derived from it. Bridges are numbered along the chain shown (N, C = ends). [ ]: non-standard residue; d: D form. The star is where a group is joined. Cbz = O=C(OCc1ccccc1)*; Aib = CC(C)(N)C(=O)O; OBn = c1ccc(CO*)cc1; βAla = NCCC(=O)O

This experiment relates to CEM cells HIV-1 protection, formazan growth assay. The experiment can be described thus: NCI AIDS Antiviral Assay. To be noted: for IC50: measured here: growth of uninfected CEM cells. An outline of the steps: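 Steps: treat uninfected and HIV-1-infected human CEM cells at five drug levels; quantify growth by soluble formazan; retest any compound reaching 50% protection; classify actives from the retest.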

Consider `Cc1c(C#N)c2n(c1C)CCN2`, for which the EC50 (usually the concentration giving half of the maximal effect) is > 1550 µM and the IC50 (commonly the concentration that inhibits the measured activity by half) was > 1550 µM. Regarding `O=C(CCCN1CCC2(CC1)CC(=O)N(N1CCCCCC1)C2=O)c1ccc(F)cc1`, the EC50 is > 200 µM and the IC50 is > 200 µM.

`N#CC(/C(=N/NC(=O)C(=O)NN)C(=O)NC12CC3CC(CC(C3)C1)C2)c1ccccc1` (centres undefined): the EC50 was > 155 µM and the IC50 was > 155 µM. On to `N#CCCN(C1=NN(C(=O)CC(=O)Nc2ccccc2Cl)C(c2ccccc2)C1)c1ccccc1Cl` (centres undefined), for which the EC50 is > 36.3 µM and the IC50 is > 36.3 µM.

For `Cc1cc(O)c2c(O)c3c(O)cc(=O)c(-c4c(=O)cc(O)c5c(O)c6c(O)cc(C)oc6cc45)c3cc2o1`, the outcome was inactive.

Consider `C[Si](C)(C)OC1c2[nH]c3ccccc3c2CN2C(=O)CCC12` (centres undefined), for which the EC50 is > 200 µM and the IC50 is > 200 µM. As for `O=c1c2cc3c(=O)n(CCc4ccccc4CO)c(=O)c3cc2c(=O)n1CCc1ccccc1CO`, the EC50 was > 10.7 µM and the IC50 was > 10.7 µM. For `O=C1C(=O)N(C2CCCCC2)C(=S)N1C1CCCCC1`, the EC50 was > 200 µM and the IC50 is > 200 µM.

As to `COC(=O)N/N=C(\c1nc2ccc(Cl)cc2[nH]c1=O)C(O)c1ccc([N+](=O)[O-])cc1` (centres undefined), the EC50 was > 575 µM and the IC50 came out at 550 µM.

For the compound `CC1(C)NC(=O)C(NC(=O)C(CC(=O)OCc2ccccc2)NC(=O)OCc2ccccc2)CCCCNC(=O)CCNC1=O` (centres undefined) (Cbz-D(OBn)K[Aib][βAla]; lactam 2-C; configuration not given here), the EC50 is > 200 µM and the IC50 is > 200 µM.

Take `O=C1OC(c2ccccc2)=N/C1=C\c1cccc2ccccc12`: the EC50 was > 120 µM and the IC50 is > 120 µM.

On to `NC(=O)c1csc(C2(O)COC(CO)C2O)n1` (centres undefined), for which the EC50 was > 200 µM and the IC50 was > 200 µM.

Regarding `COc1ccc(-n2c(=O)c3[nH]cnc3n(-c3ccc(OC)cc3)c2=S)cc1`, the EC50 was > 200 µM and the IC50 is > 200 µM. With `NCCCCC(NC(=O)OCc1ccccc1)C(=O)NCC(N)=O` (centres undefined) (HELM PEPTIDE1{[O=C(OCc1ccccc1)[*:2]].[NCCCCC(N[*:1])C(=O)[*:2]].G.[am]}$$$$V2.0), the EC50 is > 200 µM and the IC50 is > 200 µM. For the compound `O=[N+]([O-])c1ccc(Cl)cc1N/N=C/c1cccs1`, the EC50 is > 200 µM and the IC50 is > 100 µM. The matching figures for `Nc1c2ccccc2nc2c1ccc1ncccc12`: > 200 µM and 6.46 µM. The matching figures for `CC1=NN(C(=O)c2ccc(Cl)cc2)C(=O)/C1=C/c1ccccc1O`: > 20.9 µM and > 20.9 µM. For the compound `O=C(Nc1ncnc2c1ncn2C1CC(OC(=O)c2ccc([N+](=O)[O-])cc2)C(COC(=O)c2ccc([N+](=O)[O-])cc2)O1)c1ccccc1` (centres undefined), the result was inactive. Take `CNC(=O)NCCCCC(NC(C)=O)C(=O)NCc1ccccc1` (centres undefined): the EC50 is > 741 µM and the IC50 was > 741 µM.

On to `COC(=O)C(=O)C(CC(=O)Nc1ccc(C)cc1)C(=O)OC` (centres undefined), for which the EC50 was > 309 µM and the IC50 is > 309 µM. Take `Cn1cc([N+](=O)[O-])cc1C(=O)Nc1ccc(S(=O)(=O)O)c2cc(S(=O)(=O)O)ccc12`: the EC50 was > 501 µM and the IC50 is > 501 µM. On to `COC1CC(C)(N)C(O)C(C)O1` (centres undefined), for which the EC50 was > 200 µM and the IC50 was > 200 µM. For `C=C1c2nc3ccccc3n2C=C(c2ccc(Cl)cc2)N1c1ccccc1`, the EC50 was > 200 µM and the IC50 came to 95.5 µM. On to `O=C(O)Cn1c[n+](NC(=O)Cc2ccccc2)cn1`, for which the EC50 was > 200 µM and the IC50 is > 200 µM.

In the case of `Cn1c(Nc2ccccc2)c(C=Nc2ccccc2)c(=O)n(C)c1=O`, the EC50 was > 100 µM and the IC50 is 53.7 µM. The like results for `CN(C)CN1C(=O)S/C(=C2\C(=O)N(C)c3ccc(Br)cc32)C1=O` were, in that order, > 200 µM and 24 µM. The matching figures for `CCOC(=O)CCC(NC(=O)c1ccc(Nc2cnc3cc(C(F)(F)F)ccc3n2)cc1)C(=O)OCC` (centres undefined): > 200 µM and 191 µM. The like results for `COC(=O)c1c2c(cc3nc4ccccc4nc13)OCO2` were, in that order, > 200 µM and > 200 µM. For the compound `CN1CCN(CC(=O)N2CCCn3c2nc2ccccc2c3=O)CC1`, the EC50 is > 200 µM and the IC50 is > 200 µM. Consider `C=CCCNCC/C=C\[Si](C)(C)C`, for which the EC50 was > 1260 µM and the IC50 was determined as 1230 µM.

In the case of `CCCCCCCCC(C)CCCCCCCCC(=O)OCC(COP(=O)([O-])OCC[N+](C)(C)C)OC(=O)CCCCCCCCC(C)CCCCCCCC` (centres undefined), the result was inactive. With `Nc1nc(N)c(CCCCc2ccccc2)c(N)n1`, the result was inactive. With `CCN(CC)C(C)(C)C(=O)/C=C/c1ccc(C)cc1`, the result was inactive. Still for that read-out and setting: the entry for `Cc1ccc(NC(=O)C(=O)CC(=O)C2CCOC2=O)c(C)c1` (centres undefined) is “inactive”. On to `CCC12C=CCN3CCC4(c5cc(C(c6ccccn6)c6cc7ccccc7n6C)c(OC)cc5N(C)C4C(O)(C(=O)OC)C1OC(C)=O)C32` (centres undefined), for which the EC50 was > 10.7 µM and the IC50 was > 10.7 µM.

In the case of `COC(=O)/C=C(\C(=O)OC)C1C(=O)Oc2c(C)c(=O)c3ccccc3n21` (centres undefined), the EC50 was > 200 µM and the IC50 worked out at 60.3 µM. On to `CCCCCCOC(=O)c1[nH]c(=O)n(CCCCCC)c(=O)c1NC(=O)CNc1ccc2c(=O)c3ccccc3[nH]c2c1`, for which the EC50 was > 200 µM and the IC50 was 1 µM. The like results for `C=C(CCCC(C)OC(=O)NC(C)c1cccc2ccccc12)[Si](C)(C)C` (centres undefined) were, in that order, > 18.6 µM and > 18.6 µM.

Turning to `NC(=O)c1ncn(CC2(CO)CCC2)c1N`, the EC50 was > 200 µM and the IC50 was > 200 µM.

For the compound `Cc1ccsc1/C=N/Nc1cnccn1`, the EC50 is > 200 µM and the IC50 came out at 75.9 µM. For the compound `COc1cc(C2c3cc4c(cc3OC(NNS(=O)(=O)c3ccc(C)cc3)C2C)OCO4)cc(OC)c1OC` (centres undefined), the EC50 is > 20 µM and the IC50 was 0.372 µM. The matching figures for `Cc1cc(C)n2c(nc3ccccc32)c1C#N`: > 200 µM and 148 µM. Consider `COC12OCCN(C)C1=CC(=O)C1N=NCC12` (centres undefined), for which the result was inactive. Turning to `O=C(O)C1=CCCc2ccc3ccccc3c21`, the result was inactive. In the case of `O=[N+]([O-])c1nccn1CC(O)c1ccc(F)cc1` (centres undefined), the EC50 is > 1000 µM and the IC50 is > 1000 µM. Take `CN(c1ccccc1)C(c1ccccc1)C(O)c1ccccc1` (centres undefined): the outcome was inactive. For the compound `O=C1C2C3C=CC(C2C(=O)N1COP(=O)(O)O)C1C2C(=O)N(COP(=O)(O)O)C(=O)C2C31` (centres undefined), the EC50 is > 100 µM and the IC50 was > 100 µM. `N#CCCCCn1cnc2c(N)ncnc21`: the EC50 is > 200 µM and the IC50 was > 200 µM. For `COC1=C(C)C(=O)C(=O)c2ccc(C)nc21`, the result was inactive. Take `COC(=O)c1cc(C(=O)OC)c(CC(=O)C(=O)Nc2c(C(C)C)cccc2C(C)C)nc1CC(=O)C(=O)Nc1c(C(C)C)cccc1C(C)C`: the EC50 is > 200 µM and the IC50 was > 200 µM. Take `Cn1c(N)nc2c3ccc(=O)[nH]c3ccc21`: the result was inactive. Take `O=C(O)/C(=C\c1cc2c(cc1[N+](=O)[O-])OCO2)c1cc2c(cc1Br)OCO2`: the EC50 was > 200 µM and the IC50 amounted to 110 µM.

Take `O=C(NNc1nc(-c2ccccc2)cs1)C(F)(F)F`: the EC50 is > 200 µM and the IC50 is 44.7 µM.

As for `O=[N+]([O-])c1cccc(-c2oc(C=Nc3ccccc3)c([N+](=O)[O-])c2-c2cccc([N+](=O)[O-])c2)c1`, the EC50 was > 56.2 µM and the IC50 is > 56.2 µM. With `NCCCC[C@H](NC(=O)[C@H](CS)NC(=O)[C@@H](N)Cc1cnc[nH]1)C(=O)N[C@H](Cc1ccc(O)cc1)C(=O)N[C@@H](Cc1c[nH]c2ccccc12)C(=O)N[C@@H](Cc1c[nH]c2ccccc12)C(N)=O`, the EC50 was > 200 µM and the IC50 is > 200 µM. As to `Cc1cn(C2CC(OC=O)C(CO)O2)c(=O)[nH]c1=O` (centres undefined), the EC50 was > 5750 µM and the IC50 amounted to 61.7 µM. The like results for `CC(=O)Oc1cc(C)c(Cl)c2c(OC(C)=O)cc(C(C)=O)c(O)c12` were, in that order, > 200 µM and 49 µM. For the compound `OCC1CC2c3[nH]c4ccccc4c3CCN2C1` (centres undefined), the EC50 was > 282 µM and the IC50 is > 282 µM. In the case of `Cc1ccc(/C=C/C(=N/NC(=O)N/N=C(/C=C/c2ccc(C)cc2)C(C)C)C(C)C)cc1`, the EC50 is > 100 µM and the IC50 is > 100 µM. Take `Cc1cc(Br)cc(C)c1NC(=O)C(=O)C(C(=O)c1ccc2ccccc2c1)C1OC(=O)c2ccccc21` (centres undefined): the EC50 is > 64.6 µM and the IC50 was 12.9 µM. The like results for `COc1cc2cc(C(=O)N3CC(CCl)c4ccc(N)cc43)[nH]c2c(OC)c1OC` (centres undefined) were, in that order, > 1.51 µM and 0.295 µM.

`Cc1nc2ccccc2c(=O)n1NC(=O)Cc1ccccc1`: the EC50 was > 200 µM and the IC50 is > 200 µM. For the compound `CCc1n[nH]c(=O)n1N1C(=O)CCC1=O`, the EC50 is > 200 µM and the IC50 was > 200 µM. In the case of `CC1(C)C2CC(c3ccncc3)ON2C(C)(C)N1O` (centres undefined), the EC50 is > 200 µM and the IC50 is > 200 µM. For the compound `C[N+](C)(C)CCCC#CC[N+]1(C)CCOCC1`, the result was inactive.

Take `Fc1cccc(F)c1C1SCc2nc3ccccc3n21` (centres undefined): the IC50 was 41.7 µM and 56.2 µM. With `O=C(/C(=C(/Br)I)c1ccccc1)c1ccccc1`, the EC50 was > 200 µM and the IC50 is 27.5 µM.

As to `C=C1CN(S(=O)(=O)c2ccc(C)cc2)CCCN(Cc2cccn2C)CCCN(S(=O)(=O)c2ccc(C)cc2)C1`, the EC50 was > 200 µM and the IC50 was 38.9 µM. The like results for `Clc1cccc(-c2nnc(-c3nn(-c4ccccc4)c4nc5ccccc5nc34)o2)c1` were, in that order, > 4.68 µM and > 4.68 µM. The matching figures for `CC(C)(/C=N\O)NO`: > 200 µM and > 200 µM. On to `COC1=CC=C2Nc3nc(N)[nH]c(=O)c3SC2N1` (centres undefined), for which the EC50 is > 178 µM and the IC50 was > 178 µM.
